Earlier results in article PMC8146789, “20-Hydroxyecdysone, from Plant Extracts to Clinical Use: Therapeutic Potential for the Treatment of Neuromuscular, Cardio-Metabolic and Respiratory Diseases” (Biomedicines, 2021).
Read-outs that look alike come from different tables or passages of the source.

How the values were obtained:
C2C12 myotubes = tested on: C2C12 myotubes; set-up: method as in PMID 24974955; conditions: 20E 1 μM; ref [54]; cited from earlier work
ERα = tested on: ERα; set-up: method as in PMID 24974955; conditions: ref [54]; cited from earlier work
[1] = tested on: epididymal adipose tissue; set-up: method as in PMID 21869758; conditions: mice, high-fat diet, 20E 50 mg/kg/day; ref [59]; cited from earlier work
[2] = set-up: method as in Wu et al. [124]; conditions: mice, ref Wu et al. [124], cited from earlier work
mice = conditions: ref Ogawa et al. [121], cited from earlier work
rats = conditions: long-term feeding 0.2–2 g/kg/day, ref [121]; cited from earlier work

SMILES: CC(C)(O)CC[C@@H](O)[C@](C)(O)[C@H]1CC[C@@]2(O)C3=CC(=O)[C@@H]4C[C@@H](O)[C@@H](O)C[C@]4(C)[C@H]3CC[C@]12C [20E, 2β,3β,14α,20R,22R,25-hexahydroxy-5β-cholest-7-en-6-one]
- myotube diameter (C2C12 myotubes): enhanced myotube diameter
- activation of ERE reporter gene (ERα): could be activated dose dependently
- adipocyte diameter [1]: retains the median adipocyte diameter close to that in mice fed a low-fat diet
- mass of epididymal fat pads [1]: counteracts both the increase in the mass of the fat pads
- quantitative distribution, Adrenals ([2]; 5 min): 0.184 µg/g
- quantitative distribution, Bile ([2]; 5 min): 0.421 µg/g
- quantitative distribution, Bladder ([2]; 5 min): 0.013 µg/g
- quantitative distribution, Blood plasma ([2]; 5 min): 0.061 µg/g
- quantitative distribution, Brain ([2]; 5 min): 0.013 µg/g
- quantitative distribution, Feces ([2]; 5 min): 0.015 µg/g
- quantitative distribution, Heart ([2]; 5 min): 0.062 µg/g
- quantitative distribution, Kidney ([2]; 5 min): 0.137 µg/g
- quantitative distribution, Large intestine ([2]; 5 min): 0.011 µg/g
- quantitative distribution, Liver ([2]; 5 min): 0.312 µg/g
- quantitative distribution, Lungs ([2]; 5 min): 0.116 µg/g
- quantitative distribution, Skeletal muscle ([2]; 5 min): 0.021 µg/g
- quantitative distribution, Small intestine ([2]; 5 min): 0.254 µg/g
- quantitative distribution, Spinal cord ([2]; 5 min): 0.019 µg/g
- quantitative distribution, Spleen ([2]; 5 min): 0.041 µg/g
- quantitative distribution, Stomach ([2]; 5 min): 0.034 µg/g
- quantitative distribution, Testis ([2]; 5 min): 0.048 µg/g
- quantitative distribution, Urine ([2]; 5 min): 0.482 µg/g
- quantitative distribution, Adrenals ([2]; 10 min): 0.139 µg/g
- quantitative distribution, Bile ([2]; 10 min): 0.456 µg/g
- quantitative distribution, Bladder ([2]; 10 min): 0.024 µg/g
- quantitative distribution, Blood plasma ([2]; 10 min): 0.057 µg/g
- quantitative distribution, Brain ([2]; 10 min): 0.014 µg/g
- quantitative distribution, Feces ([2]; 10 min): 0.019 µg/g
- quantitative distribution, Heart ([2]; 10 min): 0.052 µg/g
- quantitative distribution, Kidney ([2]; 10 min): 0.123 µg/g
- quantitative distribution, Large intestine ([2]; 10 min): 0.023 µg/g
- quantitative distribution, Liver ([2]; 10 min): 0.251 µg/g
- quantitative distribution, Lungs ([2]; 10 min): 0.069 µg/g
- quantitative distribution, Skeletal muscle ([2]; 10 min): 0.023 µg/g
- quantitative distribution, Small intestine ([2]; 10 min): 0.139 µg/g
- quantitative distribution, Spinal cord ([2]; 10 min): 0.028 µg/g
- quantitative distribution, Spleen ([2]; 10 min): 0.026 µg/g
- quantitative distribution, Stomach ([2]; 10 min): 0.047 µg/g
- quantitative distribution, Testis ([2]; 10 min): 0.036 µg/g
- quantitative distribution, Urine ([2]; 10 min): 0.921 µg/g
- quantitative distribution, Adrenals ([2]; 30 min): 0.098 µg/g
- quantitative distribution, Bile ([2]; 30 min): 1.042 µg/g
- quantitative distribution, Bladder ([2]; 30 min): 0.038 µg/g
- quantitative distribution, Blood plasma ([2]; 30 min): 0.052 µg/g
- quantitative distribution, Brain ([2]; 30 min): 0.015 µg/g
- quantitative distribution, Feces ([2]; 30 min): 0.035 µg/g
- quantitative distribution, Heart ([2]; 30 min): 0.035 µg/g
- quantitative distribution, Kidney ([2]; 30 min): 0.098 µg/g
- quantitative distribution, Large intestine ([2]; 30 min): 0.029 µg/g
- quantitative distribution, Liver ([2]; 30 min): 0.213 µg/g
- quantitative distribution, Lungs ([2]; 30 min): 0.057 µg/g
- quantitative distribution, Skeletal muscle ([2]; 30 min): 0.028 µg/g
- quantitative distribution, Small intestine ([2]; 30 min): 0.094 µg/g
- quantitative distribution, Spinal cord ([2]; 30 min): 0.067 µg/g
- quantitative distribution, Spleen ([2]; 30 min): 0.024 µg/g
- quantitative distribution, Stomach ([2]; 30 min): 0.075 µg/g
- quantitative distribution, Testis ([2]; 30 min): 0.029 µg/g
- quantitative distribution, Urine ([2]; 30 min): 1.534 µg/g
- quantitative distribution, Adrenals ([2]; 1 h): 0.081 µg/g
- quantitative distribution, Bile ([2]; 1 h): 0.901 µg/g
- quantitative distribution, Bladder ([2]; 1 h): 0.026 µg/g
- quantitative distribution, Blood plasma ([2]; 1 h): 0.047 µg/g
- quantitative distribution, Brain ([2]; 1 h): 0.013 µg/g
- quantitative distribution, Feces ([2]; 1 h): 0.068 µg/g
- quantitative distribution, Heart ([2]; 1 h): 0.033 µg/g
- quantitative distribution, Kidney ([2]; 1 h): 0.071 µg/g
- quantitative distribution, Large intestine ([2]; 1 h): 0.031 µg/g
- quantitative distribution, Liver ([2]; 1 h): 0.112 µg/g
- quantitative distribution, Lungs ([2]; 1 h): 0.053 µg/g
- quantitative distribution, Skeletal muscle ([2]; 1 h): 0.017 µg/g
- quantitative distribution, Small intestine ([2]; 1 h): 0.083 µg/g
- quantitative distribution, Spinal cord ([2]; 1 h): 0.041 µg/g
- quantitative distribution, Spleen ([2]; 1 h): 0.018 µg/g
- quantitative distribution, Stomach ([2]; 1 h): 0.061 µg/g
- quantitative distribution, Testis ([2]; 1 h): 0.026 µg/g
- quantitative distribution, Urine ([2]; 1 h): 0.281 µg/g
- quantitative distribution, Adrenals ([2]; 3 h): 0.073 µg/g
- quantitative distribution, Bile ([2]; 3 h): 0.301 µg/g
- quantitative distribution, Bladder ([2]; 3 h): 0.023 µg/g
- quantitative distribution, Blood plasma ([2]; 3 h): 0.032 µg/g
- quantitative distribution, Brain ([2]; 3 h): 0.012 µg/g
- quantitative distribution, Feces ([2]; 3 h): 0.099 µg/g
- quantitative distribution, Heart ([2]; 3 h): 0.031 µg/g
- quantitative distribution, Kidney ([2]; 3 h): 0.055 µg/g
- quantitative distribution, Large intestine ([2]; 3 h): 0.035 µg/g
- quantitative distribution, Liver ([2]; 3 h): 0.078 µg/g
- quantitative distribution, Lungs ([2]; 3 h): 0.049 µg/g
- quantitative distribution, Skeletal muscle ([2]; 3 h): 0.015 µg/g
- quantitative distribution, Small intestine ([2]; 3 h): 0.076 µg/g
- quantitative distribution, Spinal cord ([2]; 3 h): 0.033 µg/g
- quantitative distribution, Spleen ([2]; 3 h): 0.023 µg/g
- quantitative distribution, Stomach ([2]; 3 h): 0.053 µg/g
- quantitative distribution, Testis ([2]; 3 h): 0.023 µg/g
- quantitative distribution, Urine ([2]; 3 h): 0.102 µg/g
- quantitative distribution, Adrenals ([2]; 6 h): 0.065 µg/g
- quantitative distribution, Bile ([2]; 6 h): 0.209 µg/g
- quantitative distribution, Bladder ([2]; 6 h): 0.018 µg/g
- quantitative distribution, Blood plasma ([2]; 6 h): 0.023 µg/g
- quantitative distribution, Brain ([2]; 6 h): 0.01 µg/g
- quantitative distribution, Feces ([2]; 6 h): 0.931 µg/g
- quantitative distribution, Heart ([2]; 6 h): 0.029 µg/g
- quantitative distribution, Kidney ([2]; 6 h): 0.043 µg/g
- quantitative distribution, Large intestine ([2]; 6 h): 0.048 µg/g
- quantitative distribution, Liver ([2]; 6 h): 0.061 µg/g
- quantitative distribution, Lungs ([2]; 6 h): 0.045 µg/g
- quantitative distribution, Skeletal muscle ([2]; 6 h): 0.013 µg/g
- quantitative distribution, Small intestine ([2]; 6 h): 0.061 µg/g
- quantitative distribution, Spinal cord ([2]; 6 h): 0.024 µg/g
- quantitative distribution, Spleen ([2]; 6 h): 0.027 µg/g
- quantitative distribution, Stomach ([2]; 6 h): 0.041 µg/g
- quantitative distribution, Testis ([2]; 6 h): 0.021 µg/g
- quantitative distribution, Urine ([2]; 6 h): 0.096 µg/g
- quantitative distribution, Adrenals ([2]; 12 h): 0.052 µg/g
- quantitative distribution, Bile ([2]; 12 h): 0.198 µg/g
- quantitative distribution, Bladder ([2]; 12 h): 0.015 µg/g
- quantitative distribution, Blood plasma ([2]; 12 h): 0.015 µg/g
- quantitative distribution, Brain ([2]; 12 h): 0.008 µg/g
- quantitative distribution, Feces ([2]; 12 h): 0.312 µg/g
- quantitative distribution, Heart ([2]; 12 h): 0.023 µg/g
- quantitative distribution, Kidney ([2]; 12 h): 0.037 µg/g
- quantitative distribution, Large intestine ([2]; 12 h): 0.038 µg/g
- quantitative distribution, Liver ([2]; 12 h): 0.056 µg/g
- quantitative distribution, Lungs ([2]; 12 h): 0.036 µg/g
- quantitative distribution, Skeletal muscle ([2]; 12 h): 0.011 µg/g
- quantitative distribution, Small intestine ([2]; 12 h): 0.05 µg/g
- quantitative distribution, Spinal cord ([2]; 12 h): 0.020 µg/g
- quantitative distribution, Spleen ([2]; 12 h): 0.032 µg/g
- quantitative distribution, Stomach ([2]; 12 h): 0.032 µg/g
- quantitative distribution, Testis ([2]; 12 h): 0.019 µg/g
- quantitative distribution, Urine ([2]; 12 h): 0.087 µg/g
- quantitative distribution, Adrenals ([2]; 24 h): 0.043 µg/g
- quantitative distribution, Bile ([2]; 24 h): 0.094 µg/g
- quantitative distribution, Bladder ([2]; 24 h): 0.013 µg/g
- quantitative distribution, Blood plasma ([2]; 24 h): 0.011 µg/g
- quantitative distribution, Brain ([2]; 24 h): 0.007 µg/g
- quantitative distribution, Feces ([2]; 24 h): 0.041 µg/g
- quantitative distribution, Heart ([2]; 24 h): 0.022 µg/g
- quantitative distribution, Kidney ([2]; 24 h): 0.032 µg/g
- quantitative distribution, Large intestine ([2]; 24 h): 0.023 µg/g
- quantitative distribution, Liver ([2]; 24 h): 0.046 µg/g
- quantitative distribution, Lungs ([2]; 24 h): 0.028 µg/g
- quantitative distribution, Skeletal muscle ([2]; 24 h): 0.010 µg/g
- quantitative distribution, Small intestine ([2]; 24 h): 0.033 µg/g
- quantitative distribution, Spinal cord ([2]; 24 h): 0.018 µg/g
- quantitative distribution, Spleen ([2]; 24 h): 0.027 µg/g
- quantitative distribution, Stomach ([2]; 24 h): 0.023 µg/g
- quantitative distribution, Testis ([2]; 24 h): 0.017 µg/g
- quantitative distribution, Urine ([2]; 24 h): 0.046 µg/g
- LD50 (mice; i.p.-injected): 6400 mg/kg
- LD50 (mice; ingested): > 9000 mg/kg
- subacute toxicity (rats): no subacute toxicity was observed
